Experimental findings from patent US11685747B2, “Compounds that inhibit MCL-1 protein” (AMGEN INC., priority 2014, dated 2023) are described below.

One experiment deals with T1, recombinant human Mcl-1 (Homo sapiens, UniProt Q07820).
T1 construct: C-terminally 6×His tagged Mcl-1 containing residues 171-327; made in house
Put plainly: Cell free Mcl-1:Bim affinity assay (Mcl-1 HTRF, TR-FRET). Format: binding. Particulars: inhibition of Mcl-1/Bim interaction.

The target of experiment [1] is T2, Mcl-1/Bak protein-protein interactions (Homo sapiens, UniProt Q07820).
T2 construct: expressed in transfected cells; host or cells: HEK 293 M cells, transient transfection
T2 sequence (Q07820 whole entry): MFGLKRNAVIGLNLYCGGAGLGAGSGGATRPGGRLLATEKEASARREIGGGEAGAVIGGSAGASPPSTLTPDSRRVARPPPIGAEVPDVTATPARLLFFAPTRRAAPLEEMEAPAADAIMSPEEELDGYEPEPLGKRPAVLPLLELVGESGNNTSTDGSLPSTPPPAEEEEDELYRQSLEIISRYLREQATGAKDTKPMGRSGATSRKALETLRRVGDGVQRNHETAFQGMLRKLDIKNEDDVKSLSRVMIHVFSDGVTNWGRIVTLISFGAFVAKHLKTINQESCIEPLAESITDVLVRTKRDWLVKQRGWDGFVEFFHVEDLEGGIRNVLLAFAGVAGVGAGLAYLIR
Put plainly: Cell-based split luciferase complementation assay. As to conditions: HEK 293 M cells, serum-free, 4 h.

The subject of a further experiment is OPM-2. Kind of experiment: Cell viability assay (OPM-2 10 FBS, CellTiter-Glo). The experiment is classed as cell-based, human. Particulars: OPM-2 cells. A general note: In ATP-based viability assays light output follows the ATP content of the culture.

T1 sequence (Q07820 171-327): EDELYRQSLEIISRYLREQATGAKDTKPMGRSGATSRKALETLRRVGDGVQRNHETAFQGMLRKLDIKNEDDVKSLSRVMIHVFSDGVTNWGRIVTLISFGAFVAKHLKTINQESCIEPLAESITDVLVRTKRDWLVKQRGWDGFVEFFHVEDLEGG

The term IC50 denotes the midpoint of a concentration-inhibition curve. Regarding `CC1(C)C/C=C/[C@H](O)[C@@H]2CC[C@H]2CN2C[C@@]3(CCCc4cc(Cl)ccc43)COc3ccc(cc32)C(=O)NS(=O)(=O)C1` [Example 1, (1S,3′R,6′R,7′S,8′E)-6-Chloro-7′-Hydroxy-11′,11′-Dimethyl-3,4-Dihydro-2H,15′H-Spiro[Naphthalene-1,22′-[20]Oxa[13]Thia[1,14]Diazatetracyclo[14.7.2.0^3,6.0^19,24]Pentacos A[8,16,18,24]Tetraen]-15′-One 13′,13′-Dioxide], the half-inhibitory concentration (IC50) is 0.852 nM at recombinant human Mcl-1; 163 nM in experiment [1]; 1880 nM in the experiment on OPM-2 (Homo sapiens, OPM-2, 16 h).

In the case of `CCC[C@@H]1[C@@H](C)C/C=C/[C@H](O)[C@@H]2CC[C@H]2CN2C[C@@]3(CCCc4cc(Cl)ccc43)COc3ccc(cc32)C(=O)NS1(=O)=O` (single isomer, unassigned) [Example 69], the values for the IC50 (at recombinant human Mcl-1; in experiment [1]; with OPM-2 (16 h)) were 8.66 nM, 425 nM and 2710 nM, respectively.

Turning to `C[C@H]1C/C=C/[C@H](O)[C@@H]2CC[C@H]2CN2C[C@@]3(CCCc4cc(Cl)ccc43)COc3ccc(cc32)C(=O)NS(=O)(=O)[C@@H]1C1CCC1` (single isomer, unassigned) [Example 55], the figures for the IC50 (at recombinant human Mcl-1; in experiment [1]; in the experiment on OPM-2 (16 h)) were 15.2 nM, 863 nM and 8690 nM, respectively.

`CO[C@H]1CCCC[C@@H](C)S(=O)(=O)NC(=O)c2ccc3c(c2)N(C[C@@H]2CC[C@H]21)C[C@@]1(CCCc2cc(Cl)ccc21)CO3` [Example 16, (1S,3′R,6′R,7′S,12′R)-6-Chloro-7′-Methoxy-12′-Methyl-3,4-Dihydro-2H,15′H-Spiro[Naphthalene-1,22′-[20]Oxa[13]Thia[1,14]Diazatetracyclo[14.7.2.0^3,6.0^19,24]Pentacos A[16,18,24]Trien]-15′-One 13′,13′-Dioxide]: the half-maximal inhibitory concentration (IC50) at recombinant human Mcl-1 was found to be 2.08 nM; in experiment [1], 107 nM; with OPM-2 (Homo sapiens, OPM-2, 16 h) it was 4340 nM.

Turning to `CC1(C)CC/C=C\[C@H](O)[C@@H]2CC[C@H]2CN2C[C@@]3(CCCc4cc(Cl)ccc43)COc3ccc(cc32)C(=O)NS1(=O)=O` (single isomer, unassigned) [Example 41], the 50% inhibitory concentration (IC50) at recombinant human Mcl-1 was determined as 4.42 nM; in experiment [1] it was 128 nM; in the experiment on OPM-2 (Homo sapiens, OPM-2, 16 h), 4750 nM.

With `C[C@H]1C/C=C/[C@H](O)[C@@H]2CC[C@H]2CN2C[C@@]3(CCCc4cc(Cl)ccc43)COc3ccc(cc32)C(=O)NS(=O)(=O)[C@@H]1C1CCC1` (single isomer, unassigned) [Example 57], the values for the IC50 (at recombinant human Mcl-1; in experiment [1]; in the experiment on OPM-2 (16 h)) were 2.15 nM, 375 nM and 2400 nM, respectively.

Regarding `COCCO[C@H]1/C=C/CC[C@@H](C)S(=O)(=O)NC(=O)c2ccc3c(c2)N(C[C@@H]2CC[C@H]21)C[C@@]1(CCCc2cc(Cl)ccc21)CO3` [Example 76, (1S,3′R,6′R,7′S,8′E,12′R)-6-Chloro-7′-(2-Methoxyethoxy)-12′-Methyl-3,4-Dihydro-2H,15′H-Spiro[Naphthalene-1,22′-[20]Oxa[13]Thia[1,14]Diazatetracyclo[14.7.2.0^3,6.0^19,24]Pentacos A[8,16,18,24]Tetraen]-15′-One 13′,13′-Dioxide], the IC50 on recombinant human Mcl-1 was 1.12 nM; in experiment [1], 77.3 nM; in the experiment on OPM-2 (Homo sapiens, OPM-2, 16 h), 668 nM.

For the molecule `C[C@H]1C/C=C/[C@H](O)[C@@H]2CC[C@H]2CN2C[C@@]3(CCCc4cc(Cl)ccc43)COc3ccc(cc32)C(=O)NS(=O)(=O)[C@@H]1CC1CC1` (single isomer, unassigned) [Example 61], the half-inhibitory concentration (IC50) worked out at 2.67 nM on recombinant human Mcl-1, 68.7 nM in experiment [1] and 1320 nM with OPM-2 (16 h).

On to `CC[C@@H]1CC/C=C/[C@H](OC)[C@@H]2CC[C@H]2CN2C[C@@]3(CCCc4cc(Cl)ccc43)COc3ccc(cc32)C(=O)NS1(=O)=O` [Example 20, (1S,3′R,6′R,7′S,8′E,12′R)-6-Chloro-12′-Ethyl-7′-Methoxy-3,4-Dihydro-2H,15′H-Spiro[Naphthalene-1,22′-[20]Oxa[13]Thia[1,14]Diazatetracyclo[14.7.2.0^3,6.0^19,24]Pentacos A[8,16,18,24]Tetraen]-15′-One 13′,13′-Dioxide], for which the IC50 worked out at 0.647 nM on recombinant human Mcl-1; 50.4 nM in experiment [1]; 390 nM in the experiment on OPM-2 (Homo sapiens, OPM-2, 16 h).

`CC[C@@H]1C/C=C/[C@H](O)[C@@H]2CC[C@H]2CN2C[C@@]3(CCCc4cc(Cl)ccc43)COc3ccc(cc32)C(=O)NS(=O)(=O)C1` (single isomer, unassigned) [Example 33]: the 50% inhibitory concentration (IC50) on recombinant human Mcl-1 was determined as 7.02 nM; in experiment [1] it was 872 nM; in the experiment with OPM-2 (Homo sapiens, OPM-2, 16 h), 14900 nM.
